Test results: PMC6803848, “Exploring New Structural Features of the 18β-Glycyrrhetinic Acid Scaffold for the Inhibition of Anaplastic Lymphoma Kinase” (Molecules, 2019)
Values after ≈ are worked out from the molar mass of the structure shown.

Assays:
[1] = system: PC-3; assay: MTT antiproliferative assay, PC-3 cells; type: cell-based; details: Homo sapiens; PC-3, MTT
Experimental: (§1) All the cells were seeded in 96-well plates and incubated with 5% CO2 at 37 °C for 24 h. Next, the compounds and the reference were dissolved into the culture medium. The final concentration of DMSO in the medium was less than 0.5%. After the cells were treated with compounds for 48 h, the supernatant was removed and 5 mg/mL of a fresh prepared solution of MTT was added to each well and incubated with the cells at 37 °C for another 4 h. The medium was removed, and 100 μL of testing solution was added to each well. After an overnight incubation with 5% CO2 at 37 °C, the absorbance was measured at 490/630 nm by the microplate reader. The IC50 was calculated using GraphPad Prism version 6.0 software (San Diego, CA, USA) from the non-linear curve.

[2] = system: HepG2; assay: MTT antiproliferative assay, HepG2 cells; type: cell-based; details: Homo sapiens
Experimental: as §1

[3] = system: MCF-7; assay: MTT antiproliferative assay, MCF-7 cells; type: cell-based; details: Homo sapiens, MCF7; MCF-7, MTT
Experimental: as §1

[4] = system: HT29; assay: MTT antiproliferative assay, HT29 cells; type: cell-based; details: Homo sapiens, HT-29; for inhibition at 2 µg/mL: HT29, 2 μg/mL; for inhibition at 2 µg/mL / inhibition at 20 µg/mL: 48 h, MTT, read-out: Antiproliferative activity (growth inhibition, %); for inhibition at 20 µg/mL: HT29, 20 μg/mL; for IC50: HT29, MTT
Experimental: as §1

[5] = system: Karpas299; assay: MTT antiproliferative assay, Karpas299 cells; type: cell-based; details: Homo sapiens, KARPAS-299
Experimental: as §1

[6] = system: A549; assay: MTT antiproliferative assay, A549 cells; type: cell-based; details: Homo sapiens; for inhibition at 2 µg/mL: A549, 2 μg/mL; for inhibition at 2 µg/mL / inhibition at 20 µg/mL: 48 h, MTT, read-out: Antiproliferative activity (growth inhibition, %); for inhibition at 20 µg/mL: A549, 20 μg/mL; for IC50: A549, MTT
Experimental: as §1

Row | Compound | IC50 [1] [µg/mL] | melting point [°C] | IC50 [2] [µg/mL] | IC50 [3] [µg/mL] | IC50 [4] [µg/mL] | IC50 [5] [µg/mL] | IC50 [6] [µg/mL] | inhibition at 2 µg/mL [4] [%] | inhibition at 20 µg/mL [4] [%] | inhibition at 2 µg/mL [6] [%] | inhibition at 20 µg/mL [6] [%]
1 | CC1(C)C2CC[C@]3(C)[C@H](C(=O)C=C4[C@@H]5C[C@@](C)(C(=O)O)CC[C@]5(C)CC[C@]43C)[C@@]2(C)CC[C@@H]1OC(=O)Nc1ccc(OC(F)(F)F)cc1 (stereo partly drawn) [3n, 3β-(((4-(trifluoromethoxy)phenyl)carbamoyl)oxy)-11-oxo-olean-12-en-30-oic acid] | 13.3 (≈ 19.8 µM) | 256.4 to 258.4 | 12.6 (≈ 18.6 µM) | 9.3 (≈ 13.8 µM) | 11.3 (≈ 16.8 µM) | 26 (≈ 38.5 µM) | 7.42 (≈ 11 µM) | 19 | 97.7 | 20.1 | 97.1
2 | CC1(C)[C@@H](O)CC[C@]2(C)[C@H]3C(=O)C=C4[C@@H]5C[C@@](C)(C(=O)O)CC[C@]5(C)CC[C@@]4(C)[C@]3(C)CC[C@@H]12 [18β-GA, 18β-glycyrrhetinic acid] | > 40 |  | > 40 | > 40 | > 40 | > 40 | > 40 | 0 | 12.9 | 0 | 8.41
3 | CC1(C)C2CC[C@]3(C)[C@H](C(=O)C=C4[C@@H]5C[C@@](C)(C(=O)O)CC[C@]5(C)CC[C@]43C)[C@@]2(C)CC[C@@H]1OC(=O)Nc1cc(Cl)cc(Cl)c1 (stereo partly drawn) [3c, 3β-(((3,5-dichlorophenyl)carbamoyl)oxy)-11-oxo-olean-12-en-30-oic acid] | 15 (≈ 22.7 µM) | 236.1 to 237.7 | 10.7 (≈ 16.2 µM) | 5.53 (≈ 8.4 µM) | 9.74 (≈ 14.8 µM) | 15.5 (≈ 23.5 µM) | 12.3 (≈ 18.6 µM) | 8.39 | 98.6 | 18.5 | 95.4
4 | CC1(C)C2CC[C@]3(C)[C@H](C(=O)C=C4[C@@H]5C[C@@](C)(C(=O)O)CC[C@]5(C)CC[C@]43C)[C@@]2(C)CC[C@@H]1OC(=O)Nc1ccc(Cl)c(Cl)c1 (stereo partly drawn) [3a, 3β-(((3,4-dichlorophenyl)carbamoyl)oxy)-11-oxo-olean-12-en-30-oic acid] | 11.9 (≈ 18.1 µM) | 260 to 261.4 | 11.6 (≈ 17.6 µM) | 9.31 (≈ 14.1 µM) | 11.4 (≈ 17.4 µM) | 12.3 (≈ 18.7 µM) | 11.2 (≈ 17 µM) | 11.3 | 98 | 23.9 | 95.9
5 | C[C@@H](Oc1cc(-c2cnn(C3CCNCC3)c2)cnc1N)c1c(Cl)ccc(F)c1Cl [Crizotinib, reference compound] | 3.3 (≈ 7.33 µM) |  | 2.15 (≈ 4.77 µM) | 1.84 (≈ 4.09 µM) | 0.67 (≈ 1.49 µM) | 0.28 (≈ 0.622 µM) | 1.27 (≈ 2.82 µM) | 68.8 | 99.8 | 67.6 | 97.3
6 | CC1(C)C2CC[C@]3(C)[C@H](C(=O)C=C4[C@@H]5C[C@@](C)(C(=O)O)CC[C@]5(C)CC[C@]43C)[C@@]2(C)CC[C@@H]1OC(=O)Nc1ccc(Cl)c(C(F)(F)F)c1 (stereo partly drawn) [3b, 3β-(((4-chloro-3-(trifluoromethyl)phenyl)carbamoyl)oxy)-11-oxo-olean-12-en-30-oic acid] | 12.1 (≈ 17.4 µM) | 247.8 to 248.5 | 9.25 (≈ 13.4 µM) | 8.92 (≈ 12.9 µM) | 12 (≈ 17.3 µM) | 18.6 (≈ 26.8 µM) | 11.9 (≈ 17.2 µM) | 14.1 | 87.7 | 14 | 77.3
7 | CC1(C)C2CC[C@]3(C)[C@H](C(=O)C=C4[C@@H]5C[C@@](C)(C(=O)O)CC[C@]5(C)CC[C@]43C)[C@@]2(C)CC[C@@H]1OC(=O)Nc1ccc(Br)cc1 (stereo partly drawn) [3g, 3β-(((4-bromophenyl)carbamoyl)oxy)-11-oxo-olean-12-en-30-oic acid] |  | 263 to 265 |  |  |  |  |  | 18.6 | 76.5 | 9.72 | 63.4
8 | CC1(C)C2CC[C@]3(C)[C@H](C(=O)C=C4[C@@H]5C[C@@](C)(C(=O)O)CC[C@]5(C)CC[C@]43C)[C@@]2(C)CC[C@@H]1OC(=O)CN1CCOCC1 (stereo partly drawn) [6a, 3β-(2-morpholinoacetoxy)-11-oxo-olean-12-en-30-oic acid] |  | 275.3 to 276.4 |  |  |  |  |  | 0 | 0 | 0 | 0
9 | CC1(C(=O)O)CCC2(C)CCC3(C)C(=CC(=O)C4C5(C)CCC(OC(=O)Cc6ccc(Cl)cc6)C(C)(C)C5CCC43C)C2C1 (stereo not drawn) [7a, 3β-(2-(4-chlorophenyl)acetoxy)-11-oxo-olean-12-en-30-oic acid] |  | 312 to 312.7 |  |  |  |  |  | 33.3 | 57.5 | 11.3 | 27.4
10 | CC1(C)C2CC[C@]3(C)[C@H](C(=O)C=C4[C@@H]5C[C@@](C)(C(=O)O)CC[C@]5(C)CC[C@]43C)[C@@]2(C)CC[C@@H]1OC(=O)Nc1cccc(Cl)c1 (stereo partly drawn) [3e, 3β-(((3-chlorophenyl)carbamoyl)oxy)-11-oxo-olean-12-en-30-oic acid] | 9.75 (≈ 15.6 µM) |  | 11.9 (≈ 19.1 µM) | 8.51 (≈ 13.6 µM) | 10.9 (≈ 17.5 µM) | 7.31 (≈ 11.7 µM) | 11.3 (≈ 18.2 µM) | 18.8 | 96.4 | 14.3 | 74.9

Further lines, with some results ahead:

Row | IC50 [1] [µg/mL] | melting point [°C] | IC50 [2] [µg/mL] | IC50 [3] [µg/mL] | IC50 [4] [µg/mL] | IC50 [5] [µg/mL] | IC50 [6] [µg/mL] | Compound | inhibition at 2 µg/mL [4] [%] | inhibition at 20 µg/mL [4] [%] | inhibition at 2 µg/mL [6] [%] | inhibition at 20 µg/mL [6] [%]
11 |  | 296.4 to 298 |  |  |  |  |  | CC1(C)C2CC[C@]3(C)[C@H](C(=O)C=C4[C@@H]5C[C@@](C)(C(=O)N6CCOCC6)CC[C@]5(C)CC[C@]43C)[C@@]2(C)CC[C@@H]1OC(=O)Nc1ccc(C(F)(F)F)cc1 (stereo partly drawn) [4i, 3β-(((4-(trifluoromethyl)phenyl)carbamoyl)oxy)-30-morpholino-olean-12-ene-11,30-dione] | 13.7 | 27.3 | 0 | 4.46
12 |  | 313.4 to 314.7 |  |  |  |  |  | CC1(C)C2CC[C@]3(C)[C@H](C(=O)C=C4[C@@H]5C[C@@](C)(C(=O)N6CCOCC6)CC[C@]5(C)CC[C@]43C)[C@@]2(C)CC[C@@H]1OC(=O)Nc1cc(C(F)(F)F)cc(C(F)(F)F)c1 (stereo partly drawn) [4k, 3β-(((3,5-bis(trifluoromethyl)phenyl)carbamoyl)oxy)-30-morpholino-olean-12-ene-11,30-dione] | 13 | 14.9 | 4.47 | 0
13 |  | 295 to 296.7 |  |  |  |  |  | CC1(C(=O)N2CCOCC2)CCC2(C)CCC3(C)C(=CC(=O)C4C5(C)CCC(OC(=O)Nc6cccc(C(F)(F)F)c6)C(C)(C)C5CCC43C)C2C1 (stereo not drawn) [4j, 3β-(((3-(trifluoromethyl)phenyl)carbamoyl)oxy)-30-morpholino-olean-12-ene-11,30-dione] | 20.3 | 36.4 | 0 | 0
14 |  | 278.2 to 280.3 |  |  |  |  |  | CC1(C)C2CC[C@]3(C)[C@H](C(=O)C=C4[C@@H]5C[C@@](C)(C(=O)N6CCOCC6)CC[C@]5(C)CC[C@]43C)[C@@]2(C)CC[C@@H]1OC(=O)Nc1cc(Cl)cc(Cl)c1 (stereo partly drawn) [4c, 3β-(((3,5-dichlorophenyl)carbamoyl)oxy)-30-morpholino-olean-12-ene-11,30-dione] | 7.41 | 2.76 | 0 | 0
